According to paper doi:10.1101/202341v1, “A cell-free synthetic biochemistry platform for raspberry ketone production” (biorxiv, 2017):

Columns and labels:
CurA [1] = molecular target: T1, CurA (Escherichia coli, UniProt P76113); assay: ligand fluorescence in one-pot enzymatic synthesis; assay type: binding; conditions: 25 uM CurA without NADPH; BDMC formed in situ by TAL, PCL, MatB and CUS
T1 construct: N-terminal His6-tag; expressed in E. coli BL21 Gold (DE3) pLysS; apo form
T1 sequence (P76113 1-345): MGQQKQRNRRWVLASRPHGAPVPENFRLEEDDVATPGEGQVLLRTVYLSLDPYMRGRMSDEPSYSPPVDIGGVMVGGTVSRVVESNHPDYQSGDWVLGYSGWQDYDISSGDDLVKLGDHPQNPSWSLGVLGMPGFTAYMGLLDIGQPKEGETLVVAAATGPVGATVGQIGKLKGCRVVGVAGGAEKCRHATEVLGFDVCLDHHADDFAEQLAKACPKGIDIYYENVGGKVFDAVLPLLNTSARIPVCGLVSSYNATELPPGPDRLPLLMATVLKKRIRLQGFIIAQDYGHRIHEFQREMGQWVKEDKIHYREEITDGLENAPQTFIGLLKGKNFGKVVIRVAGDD

CurA [2] = molecular target: T1, CurA; assay: ligand fluorescence (excitation […] nm, emission […] nm); assay type: binding; conditions: apo-CurA without NADPH; titration 0-100 uM curcumin with 25 uM CurA; also reduced as substrate when NADPH is added
TAL = molecular target: T2, TAL (Rhodotorula glutinis, UniProt U5TV35); assay: individual enzyme activity assay; assay type: biochemical
T2 construct: synthetic gene codon optimised for E. coli; expressed in E. coli BL21-Gold (DE3)
T2 sequence (U5TV35 1-693): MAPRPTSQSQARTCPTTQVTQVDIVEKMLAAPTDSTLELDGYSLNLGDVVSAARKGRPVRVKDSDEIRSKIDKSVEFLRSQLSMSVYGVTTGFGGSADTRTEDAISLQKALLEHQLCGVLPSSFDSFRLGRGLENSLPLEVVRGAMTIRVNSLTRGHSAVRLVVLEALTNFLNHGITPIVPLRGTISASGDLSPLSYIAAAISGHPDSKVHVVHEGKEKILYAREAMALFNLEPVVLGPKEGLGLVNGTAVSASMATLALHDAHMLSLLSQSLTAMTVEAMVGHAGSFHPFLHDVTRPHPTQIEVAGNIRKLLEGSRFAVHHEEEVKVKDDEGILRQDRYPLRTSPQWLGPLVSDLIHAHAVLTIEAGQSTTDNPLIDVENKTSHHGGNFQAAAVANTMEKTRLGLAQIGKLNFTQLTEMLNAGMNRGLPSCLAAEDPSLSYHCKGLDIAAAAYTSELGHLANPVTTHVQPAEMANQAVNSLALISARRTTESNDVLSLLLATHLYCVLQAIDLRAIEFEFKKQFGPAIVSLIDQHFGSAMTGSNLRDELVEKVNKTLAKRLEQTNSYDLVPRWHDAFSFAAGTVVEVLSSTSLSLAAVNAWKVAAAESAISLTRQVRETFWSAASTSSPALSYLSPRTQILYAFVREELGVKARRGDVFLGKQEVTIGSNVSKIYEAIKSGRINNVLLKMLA

O=C(/C=C/c1ccc(O)cc1)CC(=O)/C=C/c1ccc(O)cc1 [BDMC]
ligand fluorescence in one-pot enzymatic synthesis (CurA [1]): used in the absence of NADPH to bind to BDMC/curcumin

COc1cc(/C=C/C(=O)CC(=O)/C=C/c2ccc(O)c(OC)c2)ccc1O [curcumin]
ligand fluorescence (excitation 425 nm, emission 520 nm) (CurA [2]): CurA could bind curcumin in the absence of NADPH

N[C@@H](Cc1ccc(O)cc1)C(=O)O [tyrosine]
individual enzyme activity assay (TAL): The activity of TAL and PCL enzymes was also assayed individually
